{"source": "paper PMC6287599", "about": "“2,6-Bis(2-Benzimidazolyl)Pyridine (BBP) Is a Potent and Selective Inhibitor of Small Conductance Calcium-Activated Potassium (SK) Channels” (Frontiers in Pharmacology, 2018)", "format_in_all_cases": "cell-based", "key": {"Kv1.5": {"target": "Kv1.5 (Homo sapiens, UniProt P22460)", "sequence (P22460 whole entry)": "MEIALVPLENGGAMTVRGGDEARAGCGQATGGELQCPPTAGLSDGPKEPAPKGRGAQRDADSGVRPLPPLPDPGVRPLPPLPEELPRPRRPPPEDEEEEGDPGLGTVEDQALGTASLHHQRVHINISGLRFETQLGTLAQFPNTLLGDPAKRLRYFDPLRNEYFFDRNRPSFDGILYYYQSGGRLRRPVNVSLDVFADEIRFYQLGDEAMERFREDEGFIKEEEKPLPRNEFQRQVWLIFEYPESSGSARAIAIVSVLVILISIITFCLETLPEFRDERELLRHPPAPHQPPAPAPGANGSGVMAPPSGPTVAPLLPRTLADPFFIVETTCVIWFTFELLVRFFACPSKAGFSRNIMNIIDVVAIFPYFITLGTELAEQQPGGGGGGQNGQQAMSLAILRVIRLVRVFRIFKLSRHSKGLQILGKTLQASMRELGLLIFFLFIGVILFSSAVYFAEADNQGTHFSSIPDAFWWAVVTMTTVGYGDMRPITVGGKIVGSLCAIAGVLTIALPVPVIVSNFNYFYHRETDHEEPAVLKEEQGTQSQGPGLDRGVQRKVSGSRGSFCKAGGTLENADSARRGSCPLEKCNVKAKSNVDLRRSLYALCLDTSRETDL", "experiment": "Two-electrode voltage clamp in Xenopus laevis oocytes, Kv1.5", "conditions": "BBP 10 μM, TEVC, n = 5", "method": "cRNA was prepared from linearized plasmids using the mMESSAGE mMACHINE T7 kit (Ambion, USA) and quantified by UV spectroscopy (NanoDrop, Thermo Scientific, Wilmington, USA). Xenopus laevis oocytes were acquired from EcoCyte Bioscience (Castrop-Rauxel, Germany). Oocytes were injected with 50 nL cRNA and currents were recorded after 2 days of incubation at 19°C. Currents were recorded at a sampling rate of 10 kHz using a TEVC amplifier (Dagan CA-1B; IL, USA), and borosilicate glass recording electrodes (Module Ohm, Herlev, Denmark), made with a DMZ Universal Puller (Zeitz Instruments, Martinsried, Germany) with a resistance of 0.5–1 MΩ when filled with 2 M KCl. Oocytes were superfused with Kulori (pH 7.4) solution containing NaCl 90 mM, KCl 4 mM, MgCl2 1 mM, CaCl2 1 mM, 4-(2-hydroxyethyl)-1-piperazineethanesulfonic acid 5 mM, and currents were elicited with the voltage protocols previously indicated (Skarsfeldt et al., [2016]), from a holding potential of −80 mV. […]\n(§1) To assess the effect of BBP on other calcium-activated potassium channels (hBK, hSK3 WT, rSK3 H491N, and hIK), each individual current was first normalized to its cell size using membrane's capacitance (pA/pF) before statistical analysis. […] Statistical significance between saline and the effect of both BBP and the corresponding reference compound was determined for each channel using one-way ANOVA analysis. […]"}, "hERG channel": {"target": "hERG channel (Homo sapiens, UniProt Q12809)", "sequence (Q12809 whole entry)": "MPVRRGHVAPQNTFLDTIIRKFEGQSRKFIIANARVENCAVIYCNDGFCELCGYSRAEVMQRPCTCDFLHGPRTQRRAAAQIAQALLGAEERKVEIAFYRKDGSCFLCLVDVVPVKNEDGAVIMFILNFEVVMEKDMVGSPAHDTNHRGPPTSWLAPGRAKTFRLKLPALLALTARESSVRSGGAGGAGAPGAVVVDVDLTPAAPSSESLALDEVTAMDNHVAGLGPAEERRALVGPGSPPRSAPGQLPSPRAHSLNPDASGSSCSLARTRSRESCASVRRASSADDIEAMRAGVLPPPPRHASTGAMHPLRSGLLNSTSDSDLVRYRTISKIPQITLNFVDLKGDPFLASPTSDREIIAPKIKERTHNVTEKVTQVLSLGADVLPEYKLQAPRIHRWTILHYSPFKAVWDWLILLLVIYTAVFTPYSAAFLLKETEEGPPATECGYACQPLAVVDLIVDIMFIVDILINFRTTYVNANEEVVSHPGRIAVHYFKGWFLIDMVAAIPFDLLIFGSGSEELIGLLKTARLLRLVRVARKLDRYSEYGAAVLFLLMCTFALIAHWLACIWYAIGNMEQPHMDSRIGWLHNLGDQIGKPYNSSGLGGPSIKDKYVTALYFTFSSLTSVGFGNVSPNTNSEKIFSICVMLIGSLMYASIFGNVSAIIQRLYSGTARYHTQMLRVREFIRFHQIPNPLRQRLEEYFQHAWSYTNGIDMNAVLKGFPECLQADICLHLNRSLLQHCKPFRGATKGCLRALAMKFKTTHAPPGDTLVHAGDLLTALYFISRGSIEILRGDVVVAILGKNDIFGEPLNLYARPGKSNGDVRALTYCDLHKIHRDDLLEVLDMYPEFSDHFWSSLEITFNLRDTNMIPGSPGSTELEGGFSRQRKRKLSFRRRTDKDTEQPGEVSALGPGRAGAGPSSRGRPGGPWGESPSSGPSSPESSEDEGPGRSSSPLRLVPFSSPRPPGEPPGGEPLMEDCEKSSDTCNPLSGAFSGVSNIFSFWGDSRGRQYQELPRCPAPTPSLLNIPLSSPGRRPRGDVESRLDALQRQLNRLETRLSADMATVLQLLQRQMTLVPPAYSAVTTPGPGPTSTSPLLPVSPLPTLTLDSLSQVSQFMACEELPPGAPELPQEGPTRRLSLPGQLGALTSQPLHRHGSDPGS", "experiment": "Automated patch clamp, stable CHO cell line expressing hERG", "conditions": "BBP 10 μM, automated patch clamp, CHO, n = 5", "method": "(§2) Three different stable HEK293 cell lines expressing hSK1, hSK2 or hSK3 (NeuroSearch A/S, Ballerup, Denmark) and a CHO stable cell line expressing hERG (University of Copenhagen, Copenhagen, Denmark) were used for automated patch clamp. These cells were cultivated and prepared as previously described (Skarsfeldt et al., [2016]).\n(§3) Automated patch clamp (QPatch 16, Sophion, Denmark) on SK-expressing HEK293 cell lines was conducted as previously described (Simó-Vicens et al., [2017b]). Briefly, SK currents were elicited by voltage-ramps starting at −80 mV and finishing at +80 mV from a holding potential of 0 mV. Extracellular solution contained 0.1 mM CaCl2, 3 mM MgCl2, 154 mM KCl, 10 mM HEPES and 10 mM glucose with pH 7.4. Intracellular solution for SK experiments contained 8.106 mM CaCl2 (final free calcium concentration of 400 nM), 1.167 mM MgCl2, 10 mM EGTA, 154 mM KCl, 10 mM HEPES, 31.25/ 10 mM KOH/EGTA and 15 mM KOH with pH 7.2. […]\nas §1"}, "[1]": {"target": "hERG channel (against SK channel subtypes hSK1, hSK2, hSK3) (Homo sapiens, UniProt Q12809)", "sequence (Q12809 whole entry)": "as above", "experiment": "Automated patch clamp, stable CHO cell line expressing hERG", "conditions": "human, CHO cells stably expressing hERG", "method": "as §2, §3, §1"}}, "note": "Entries after “also recorded” stand apart in the source; their conditions may differ."}
{"molecule": "c1cc(-c2nc3ccccc3[nH]2)nc(-c2nc3ccccc3[nH]2)c1", "note": "[BBP, 2,6-Bis(2-benzimidazolyl)pyridine]", "values": [{"measurement": "Effect on Kv1.5 current", "setting": "Kv1.5", "value": "did not have any effect; also recorded: did not significantly affect"}, {"measurement": "Reduction of hERG current", "setting": "hERG channel", "value": "19 ± 3", "unit": "%"}, {"measurement": "selectivity ratio", "setting": "[1]", "value": 46}]}
